Data reported in US4616081A, “Cephalosporin compounds” (Asahi Kasei Kogyo Kabushiki Kaisha, priority 1982, dated 1986).

Key:
[1] = test system: Staph. pyogenes NY5; test: MIC against Staph. pyogenes NY5; assay type: cell-based
[2] = test system: E. coli W3630 PS3; test: MIC against E. coli W3630 PS3; assay type: cell-based
Method: (§1) Nextly, antibacterial activity or minimum inhibitory concentration (MIC) was measured and the results are shown in Table 1 with respect to the following representative compounds according to the present invention. [drawing 19]
(§2) With respect to Compound Nos. 14 and 15, antibacterial activity or minimum inhibitory concentration (MIC) was measured and the results are shown in Table 2. [drawing 21]

[3] = test system: Sarcina lutea ATCC 9341; test: MIC against Sarcina lutea ATCC 9341; assay type: cell-based
Method: as §1, §2

[4] = test system: E. coli W3630; test: MIC against E. coli W3630; assay type: cell-based
Method: as §1, §2

[5] = test system: Staph. aureus MS27; test: MIC against Staph. aureus MS27; assay type: cell-based
Method: as §1, §2

[6] = test system: Enterobact. cloacae GN336; test: MIC against Enterobact. cloacae GN336; assay type: cell-based
Method: as §1, §2

[7] = test system: E. coli NIHJ-JC2; test: MIC against E. coli NIHJ-JC2; assay type: cell-based
Method: as §1, §2

[8] = test system: Citrobact. freundii GN346; test: MIC against Citrobact. freundii GN346; assay type: cell-based
Method: as §1, §2

[9] = test system: Enterobact. aerogenes 0655; test: MIC against Enterobact. aerogenes 0655; assay type: cell-based
Method: as §1, §2

[10] = test system: Salm. enteritidis Gaertner; test: MIC against Salm. enteritidis Gaertner; assay type: cell-based
Method: as §1, §2

[11] = test system: Serratia marcescens; test: MIC against Serratia marcescens; assay type: cell-based
Method: as §1, §2

[12] = test system: Klebs. pneumoniae ATCC 10031; test: MIC against Klebs. pneumoniae ATCC 10031; assay type: cell-based
Method: as §1, §2

[13] = test system: Shigella sonnei E33; test: MIC against Shigella sonnei E33; assay type: cell-based
Method: as §1, §2

[14] = test system: Proteus morganii 0239; test: MIC against Proteus morganii 0239; assay type: cell-based
Method: as §1, §2

[15] = test system: Staph. aureus ATCC 6538P; test: MIC against Staph. aureus ATCC 6538P; assay type: cell-based
Method: as §1, §2

[16] = acute toxicity test using mice, intraperitoneal; conditions: mouse, in vivo, ip
Source text: In addition to excellent antibacterial activity, the compounds of the present invention are low in toxicity. For example, in acute toxicity test using mice, the following results were obtained with Compound Nos. 2, 3, 7, 14, 15 and 23 which were intraperitoneally administered.

[17] = maximum blood concentration after oral administration in Wister rats (HPLC and Bioassay); assay type: in vivo; conditions: Wister rat, fasted, 30 mg/kg, solution of pH 7 in phosphate buffer
Method: Further in the compounds according to the present invention, intestinal absorption is improved by the introduction of amino acids at the 3-position thereof. For example, comparison of the maximum blood concentration of the Compound Nos. 2, 3, 7, 8, 14, 15 and 23 with that of Comparative Compound (b) establishes and affirms the effects, as is shown below. In the above test, the method for measurement of blood concentration was as follows. Rate: Wister rat weighing 170 to 220 g Dose: 30 mg/kg Wister rats were fasted from the previous night but freely accessible to water. Each of drugs was administered as a solution of pH 7 in a phosphate buffer, when orally administered. The blood concentration was measured in accordance with the High Performance Liquid Chromatography (HPLC) method and the Bioassay method by using E. coli as bacteria for test.

[18] = Bacterial count inoculated 10^6 cells/ml
[19] = Bacterial count inoculated 10^8 cells/ml

| Structure (SMILES) | Minimum Inhibitory Concentration (MIC) [1, 18] | Minimum Inhibitory Concentration (MIC) [1, 19] | Minimum Inhibitory Concentration (MIC) [2, 18] | Minimum Inhibitory Concentration (MIC) [2, 19] | Minimum Inhibitory Concentration (MIC) [3, 18] | Minimum Inhibitory Concentration (MIC) [3, 19] | Minimum Inhibitory Concentration (MIC) [4, 18] | Minimum Inhibitory Concentration (MIC) [4, 19] | Minimum Inhibitory Concentration (MIC) [5, 18] | Minimum Inhibitory Concentration (MIC) [5, 19] | Minimum Inhibitory Concentration (MIC) [6, 18] | Minimum Inhibitory Concentration (MIC) [6, 19] | Minimum Inhibitory Concentration (MIC) [7, 18] | Minimum Inhibitory Concentration (MIC) [7, 19] | Minimum Inhibitory Concentration (MIC) [8, 18] | Minimum Inhibitory Concentration (MIC) [8, 19] | Minimum Inhibitory Concentration (MIC) [9, 18] | Minimum Inhibitory Concentration (MIC) [9, 19] | Minimum Inhibitory Concentration (MIC) [10, 18] | Minimum Inhibitory Concentration (MIC) [10, 19] | also measured |
| --- | --- | --- | --- | --- | --- | --- | --- | --- | --- | --- | --- | --- | --- | --- | --- | --- | --- | --- | --- | --- | --- |
| CCN1CCN(C(=O)NC(C(=O)NC2C(=O)N3C(C(=O)O)=C(CSc4nnnn4C)CSC23)c2ccc(O)cc2)C(=O)C1=O (stereo not drawn) [Comparative Compound (c), reference compound] | ≤ 0.2 | 0.4 | ≤ 0.2 | 25 | ≤ 0.2 | ≤ 0.2 | 0.4 | 25 | 3.1 | 50 | ≤ 0.2 | 50 | ≤ 0.2 | 6.3 | 50 | > 100 | 0.8 | > 100 | 0.4 | 50 | Minimum Inhibitory Concentration (MIC) [11, 18]: 0.8; Minimum Inhibitory Concentration (MIC) [11, 19]: > 100; Minimum Inhibitory Concentration (MIC) [12, 18]: ≤ 0.2; Minimum Inhibitory Concentration (MIC) [12, 19]: > 100; Minimum Inhibitory Concentration (MIC) [13, 18]: ≤ 0.2; Minimum Inhibitory Concentration (MIC) [13, 19]: ≤ 0.2; Minimum Inhibitory Concentration (MIC) [14, 18]: 0.8; Minimum Inhibitory Concentration (MIC) [14, 19]: > 100; Minimum Inhibitory Concentration (MIC) [15, 18]: 1.6; Minimum Inhibitory Concentration (MIC) [15, 19]: 1.6 |
| CO/N=C(\C(=O)N[C@@H]1C(=O)N2C(C(=O)O)=C(CSc3nnc(CC(N)C(=O)O)s3)CS[C@H]12)c1csc(N)n1 (stereo partly drawn) [Compound No. 7] | ≤ 0.2 | 0.2 | ≤ 0.2 | 1.6 | ≤ 0.2 | ≤ 0.2 | ≤ 0.2 | 0.8 | 3.1 | 3.1 | ≤ 0.2 | 12.5 | 0.4 | 0.2 | 50 | 100 | ≤ 0.2 | 25 | ≤ 0.2 | 3.1 | LD50 [16]: 9000 to 12000 mg/kg; Cmax [17]: 7000 ng/mL; Minimum Inhibitory Concentration (MIC) [11, 18]: ≤ 0.2; Minimum Inhibitory Concentration (MIC) [11, 19]: 100; Minimum Inhibitory Concentration (MIC) [12, 18]: ≤ 0.2; Minimum Inhibitory Concentration (MIC) [12, 19]: 0.8; Minimum Inhibitory Concentration (MIC) [13, 18]: ≤ 0.2; Minimum Inhibitory Concentration (MIC) [13, 19]: 0.2; Minimum Inhibitory Concentration (MIC) [14, 18]: ≤ 0.2; Minimum Inhibitory Concentration (MIC) [14, 19]: 25; Minimum Inhibitory Concentration (MIC) [15, 18]: 1.6; Minimum Inhibitory Concentration (MIC) [15, 19]: 3.1 |
| CC(C)(O/N=C(\C(=O)N[C@@H]1C(=O)N2C(C(=O)O)=C(CSc3nnc(CC(N)C(=O)O)s3)CS[C@H]12)c1csc(N)n1)C(=O)O (stereo partly drawn) [Compound No. 8] | – | – | – | – | – | – | – | – | – | – | – | – | – | – | – | – | – | – | – | – | Cmax [17]: 8000 ng/mL |
